# Test results published in patent US8338475B2, “Anti-proliferative pharmaceutical composition” (BioCis Pharma Oy, priority 2003, dated 2012).
# What was measured:
# HSF (skin fibroblast) = assay: Proliferation assay (CellTiter 96), HSF cells; type: cell-based, human; details: pH 6.5, 44 h, cis-UCA 10 mM, CPT 2 μM, 15,000 cells per 100 μl
# From the text: (§1) Transformed tumour cell lines WM 266-4 and A2058 (cutaneous melanoma), HT-1080 (epithelial fibrosarcoma), HeLa (epithelial adenocarcinoma of cervix), HK293 (kidney epithelial cells) and non-transformed cell line HSF (skin fibroblast from a healthy volunteer donor) of human origin have been described earlier (Li et al. 2003). The K562 (chronic myelogenous leukemia) cells were purchased from American Type Culture Collection.
# (§2) The cells were maintained in logarithmic growth phase in IMDM medium (Invitrogen, Paisley, UK) supplemented with 10% fetal calf serum and antibiotics in a humidified incubator at +37° C., 5% CO2. The adherent cells lines were harvested for experiments with 0.25% trypsin-EDTA in PBS for 5 min and then resuspended and washed in medium. After counting of viable cells, 15,000 to 75,000 cells were transferred into flat-bottom 96-well cell culture plates in a volume of 100 or 150 μl.
# The proliferation activity of cultured cell lines was quantified in flat-bottom 96-well plates with a modified colorimetric assay based on a tetrazolium derivative (CellTiter 96 Aqueous One Solution Cell Proliferation Assay, Promega). The cells were cultured in the presence of camptothecin and/or cis-UCA for 20 to 92 h, then the proliferation reagent was added for 2 h, and the absorbance at 490 nm was measured in a plate reader. […]
# [1] = test system: A2058 human cutaneous melanoma tumours; assay: Tumour growth in SCID/SCID mice in vivo; details: 16-day treatment, intratumoural 30 mM cis-UCA, 1 μM CPT, pH 6.5
# Experimental: All injection solutions were adjusted to pH 6.5. The data points have been normalised to unity tumour size at day 0. Data from five mice in each group is included (mean, SD).
# The A2058 human cutaneous melanoma cells were cultured under normal cell culture conditions prior to injection into mice. Two million A2058 cells were injected s.c. into the neck of SCID/SCID mice (Charles River Laboratories, Germany). Tumours were allowed to develop for two weeks to the size of a small pearl before the treatments. The mice were divided into four groups of six animals, each containing three males and three females. Each tumour was first injected 50 μl of one of the test solutions (A: PBS; B: 30 mM cis-UCA; C: 1 μM CPT; D: 30 mM cis-UCA+1 μM CPT) three times a week (Mon-Wed-Fri). After day 7 from the beginning of injections, the injection volume was increased to 150 μl injected into three different sides of the tumour. Tumour length and width were measured with a caliper three times a week before each injection. Tumour planar area was calculated as length×width. The tumour growth inhibition efficiency I of the treatments was calculated according to Equation 1:
# [formula] where Sr represents the normalised relative size of the tumour in the control group (A) or any of the treatment groups (T), and d0 to d16 are the (eight) measuring time points during the 16-day treatment period.
# After 16 days from the first injection, all the animals were sacrificed with CO2, and the tumours were collected and fixed in formalin for further studies. In groups A, C, and D, one mouse was sacrificed before the end of the experiment because of poor development of the tumour (no measurable tumour at day 0). One animal in group B was sacrificed prematurely after it had severly scratched the tumour. Data from these animals were not included in the calculation of the tumour size results. All the removed animals were female mice. Immunohistochemical data was obtained also from the removed mice except from group B. The experiments were conducted under a protocol approved by the local ethics committee.
# [2] = test system: WM 266-4 (cutaneous melanoma); assay: Proliferation assay (CellTiter 96), WM266-4 cells; type: cell-based, human
# Experimental: The cells were cultured in triplicate with or without 2 μM camptothecin (CPT) or 10 mM cis-UCA in a density of 15,000 cells per […]. A, Cells taken from normal pH 7.4 cultures to test conditions at pH 6.5. B, Cells cultured in low pH 6.7 adaptation medium for 3 d, then tested at pH 6.5. C, Cells cultured and tested at pH 7.4.
# as §1, §2
# The proliferation activity of cultured cell lines was quantified in flat-bottom 96-well plates with a modified colorimetric assay based on a tetrazolium derivative (CellTiter 96 Aqueous One Solution Cell Proliferation Assay, Promega). The cells were cultured in the presence of camptothecin and/or cis-UCA for 20 to 92 h, then the proliferation reagent was added for 2 h, and the absorbance at 490 nm was measured in a plate reader. Blank absorption values in wells containing medium without cells were subtracted before comparison analysis.
# The cell lines were tested in a 44-h culture at pH 6.5 with or without 2 μM camptothecin and 10 mM cis-UCA at 15,000 cells per 100 μl total volume. […] In order to further characterise the effective anti-proliferative concentration range of cis-UCA, proliferation was measured in a 44-h assay at pH 6.5 with cis-UCA concentration ranging from 30 μM to 30 mM.
# HeLa cells = assay: Monitoring of intracellular pH (BCECF, flow cytometry), HeLa cells; type: cell-based, human
# Experimental: The cells were labelled with BCECF and placed in pH-adjusted buffer solutions with or without various concentrations of cis-UCA. Left panels, calibration of BCECF fluorescence intensity of nigericin-treated cells in high-potassium buffer as a function of buffer pH. Right panels, intracellular pH values in buffers with or without various concentrations of cis-UCA. All test buffers were adjusted to pH 7.4 (%) or pH 6.5 (+) after the addition of cis-UCA. Results were calculated using the corresponding calibration curve on the left.
# Intracellular pH in the cell lines in the presence of cis-UCA was measured with the pH-sensitive fluorescent dye 2′,7′-bis-(2-carboxyethyl)-5-(and-6)-carboxyfluorescein (BCECF, acetoxymethyl ester; Molecular Probes, Leiden, The Netherlands) by flow cytometry. Two million cells were incubated in 5 ml DMEM medium (Invitrogen), pH 7.4, containing 0.35 μM BCECF at 37° C. for 30 min, washed once in sodium phosphate buffer (50 mM NaH2PO4/Na2HPO4, 43 mM NaCl), pH 7.4, and resuspended in 0.3 ml saline. Twenty μl of the cell suspension was pipetted into flow cytometry tubes. […]
# Calibration of intracellular pH in situ was performed using the K^+/H^+ ionophore nigericin (Molecular Probes) in high-potassium buffers. […] Exact intracellular pH values were calculated from mean BCECF fluorescence intensities by reference with nigericin-clamped calibration cells. […]
# [3] = test system: human polymorphonuclear neutrophils; details: extracellular pH range 6.1 to 7.0; patent application US2006035973; cited from earlier work
smiles,measurement,setting,value
"O=C(O)/C=C\c1c[nH]cn1 [cis-UCA, cis-urocanic acid]",Inhibition of proliferation (mean percentage inhibition ± SD compared with untreated control),HSF (skin fibroblast),41 ± 1.1%
same,"Growth suppression, female",[1]; female mice,72.0%
same,"Growth suppression, male",[1]; male mice,55.9%
same,percentage inhibition of proliferation,"[2]; 10 mM cis-UCA alone, cells from pH 7.4 cultures tested at pH 6.5, 92 h (FIG. 2A)",36%
same,percentage inhibition of proliferation,"[2]; 10 mM cis-UCA, cells adapted to pH 6.7 for 3 days, tested at pH 6.5, 92 h (FIG. 2B)",28%
same,Inhibition of proliferation (mean percentage inhibition ± SD compared with untreated control),"[2]; pH 6.5, 44 h, cis-UCA 10 mM, CPT 2 μM, 15,000 cells per 100 μl",20 ± 0.6%
same,decrease of intracellular pH,"HeLa cells; extracellular pH 6.5, highest cis-UCA concentration (30 mM)",about 0.25 pH units
same,intracellular pH with escalating concentrations,"HeLa cells; extracellular pH 7.4, cis-UCA up to 30 mM",remained almost constant
same,effect on the intracellular pH of neutrophils,[3],affected the intracellular pH
